Experimental data taken from PubChem BioAssay AID256 (DTP/NCI, 2004).
Where “and” joins values, the source holds several entries; their conditions need not be identical. Equal entries are not always repeated. Inconclusive results and toxic doses are left out. The calls were made as follows: active = survival T/C of 150% or more; inactive = T/C below 125% in these data.

Tested on: CD2F1 mice, L1210 leukemia ip, survival T/C
Assay: NCI In Vivo Anticancer Drug Screen. Data for tumor model L1210 Leukemia (intraperitoneal) in CD2F1 (CDF1) mice
Conditions: endpoint: mean survival time, higher = longer survival
How it was run: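 Activity against a transplanted murine tumor was judged by comparing the compound group with a vehicle group. The outcome in the treated animals was divided by that in the controls.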

[1] = dose: 100.0 mg/kg/injection, schedule: Q04DX003 (ip), vehicle: saline with Tween-80
[2] = dose: 200.0 mg/kg/injection, schedule: Q04DX003 (ip), vehicle: saline with Tween-80
[3] = dose: 400.0 mg/kg/injection, schedule: Q04DX003 (ip), vehicle: saline with Tween-80
[4] = dose: 100.0 mg/kg/injection, schedule: Q01DX001 (ip), vehicle: saline with Tween-80
[5] = dose: 200.0 mg/kg/injection, schedule: Q01DX001 (ip), vehicle: saline with Tween-80
[6] = dose: 400.0 mg/kg/injection, schedule: Q01DX001 (ip), vehicle: saline with Tween-80

Measured: T/C

CCOC(=O)C(C)Oc1ccc(Cl)cc1 (configuration not stated)
inactive: dose: 25.0 mg/kg/injection, schedule: Q01DX009 (ip), vehicle: water 107 % of control | dose: 50.0 mg/kg/injection, schedule: Q01DX009 (ip), vehicle: water 106 % of control | dose: 100.0 mg/kg/injection, schedule: Q01DX009 (ip), vehicle: water 106 % of control | dose: 200.0 mg/kg/injection, schedule: Q01DX009 (ip), vehicle: water 107 % of control | dose: 400.0 mg/kg/injection, schedule: Q01DX009 (ip), vehicle: water 109 % of control

COc1ccc(NC(=O)c2ccccc2)c([N+](=O)[O-])c1
inactive: [1] 105 % of control | [2] 97 % of control | [3] 94 % of control

c1ccc(OCCCNc2ccccn2)cc1
inactive: dose: 25.0 mg/kg/injection, schedule: Q04DX003 (ip), vehicle: saline with Tween-80 92 % of control | dose: 50.0 mg/kg/injection, schedule: Q04DX003 (ip), vehicle: saline with Tween-80 103 % of control | [1] 92 % of control and 97 % of control

NS(=O)(=O)C1CCC(Cl)NC1 (configuration not stated)
inactive: [1] 100 % of control | [2] 96 % of control | [3] 102 % of control

[Pd].[Pd].[S-]CC[S-].[S-]CC[S-].c1ccc([PH+](c2ccccc2)c2ccccc2)cc1.c1ccc([PH+](c2ccccc2)c2ccccc2)cc1
inactive: dose: 3.13 mg/kg/injection, schedule: Q04DX003 (ip), vehicle: distilled water + Tween-80 106 % of control | dose: 6.25 mg/kg/injection, schedule: Q04DX003 (ip), vehicle: distilled water + Tween-80 98 % of control | dose: 12.5 mg/kg/injection, schedule: Q04DX003 (ip), vehicle: distilled water + Tween-80 95 % of control | dose: 25.0 mg/kg/injection, schedule: Q04DX003 (ip), vehicle: distilled water + Tween-80 92 % of control | dose: 50.0 mg/kg/injection, schedule: Q04DX003 (ip), vehicle: distilled water + Tween-80 95 % of control | dose: 100.0 mg/kg/injection, schedule: Q04DX003 (ip), vehicle: distilled water + Tween-80 92 % of control | dose: 200.0 mg/kg/injection, schedule: Q04DX003 (ip), vehicle: distilled water + Tween-80 93 % of control

C1c2nnnn2Cc2nnnn21
inactive: dose: 12.5 mg/kg/injection, schedule: Q04DX002 (ip), vehicle: saline 96 % of control | dose: 25.0 mg/kg/injection, schedule: Q04DX002 (ip), vehicle: saline 104 % of control | dose: 50.0 mg/kg/injection, schedule: Q04DX002 (ip), vehicle: saline 93 % of control

CC(=O)NC1C(OC(C)=O)C(OC(C)=O)C(OC(C)=O)C(OC(C)=O)C1OC(C)=O (configuration not stated)
inactive: [4] 97 % of control | [5] 93 % of control | [6] 93 % of control

Cc1csc(NC(=O)c2ccc(C(=O)Nc3nc(C)cs3)cc2)n1
inactive: dose: 100.0 mg/kg/injection, schedule: Q01DX001 (ip), vehicle: saline 95 % of control | dose: 200.0 mg/kg/injection, schedule: Q01DX001 (ip), vehicle: saline 95 % of control | dose: 400.0 mg/kg/injection, schedule: Q01DX001 (ip), vehicle: saline 92 % of control

CC(C)(CO)N=Cc1ccccc1F
inactive: dose: 75.0 mg/kg/injection, schedule: Q01DX001 (ip), vehicle: other 97 % of control | dose: 150.0 mg/kg/injection, schedule: Q01DX001 (ip), vehicle: other 96 % of control | dose: 300.0 mg/kg/injection, schedule: Q01DX001 (ip), vehicle: other 93 % of control

CC(C)(Cc1ccc([N+](=O)[O-])cc1)[N+](=O)[O-]
inactive: dose: 75.0 mg/kg/injection, schedule: Q01DX001 (ip), vehicle: saline 98 % of control | dose: 150.0 mg/kg/injection, schedule: Q01DX001 (ip), vehicle: saline 102 % of control

Cc1ccc(C(=O)/C=C/c2ccccc2)cc1
inactive: dose: 25.0 mg/kg/injection, schedule: Q01DX009 (ip), vehicle: Klucel (hydroxypropylcellulose) (HPC) 86 % of control | dose: 50.0 mg/kg/injection, schedule: Q01DX009 (ip), vehicle: Klucel (hydroxypropylcellulose) (HPC) 88 % of control | [4] 108 % of control | dose: 100.0 mg/kg/injection, schedule: Q01DX009 (ip), vehicle: Klucel (hydroxypropylcellulose) (HPC) 86 % of control | [5] 100 % of control | dose: 200.0 mg/kg/injection, schedule: Q01DX009 (ip), vehicle: Klucel (hydroxypropylcellulose) (HPC) 86 % of control | [6] 100 % of control
